Results published in US10765114B2, “4-amino-6-(pyridyl and 2-substitutedphenyl)-picolinates and 6-amino-2-(pyridyl and 2-substitutedphenyl)-pyrimidine-4-carboxylates and their use as herbicides” (Dow AgroSciences LLC, priority 2013, dated 2020).

Assays:
Assay in all cases: Post-Emergent Test III (Wheat and Barley)
POLCO (wild buckwheat) = format: in vivo, Polygonum convolvulus; settings: for Visual Growth Reduction (%) 21 Days After Application, POLCO: POLCO wild buckwheat (Polygonum convolvulus), post-emergent
Method: (§1) Seeds of the desired test plant species were planted in Sun Gro MetroMix® 306 planting mixture, which typically has a pH of 6.0 to 6.8 and an organic matter content of about 30 percent, in plastic pots with a surface area of 103.2 square centimeters (cm^2). When required to ensure good germination and healthy plants, a fungicide treatment and/or other chemical or physical treatment was applied. The plants were grown for 7-36 days in a greenhouse with an approximate 14 h photoperiod which was maintained at about 18° C. during the day and 17° C. during the night. Nutrients and water were added on a regular basis and supplemental lighting was provided with overhead metal halide 1000-Watt lamps as necessary. The plants were employed for testing when they reached the second or third true leaf stage.
(§2) A weighed amount, determined by the highest rate to be tested, of each test compound was placed in a 25 mL glass vial and was dissolved in 4 mL of a 97:3 v/v mixture of acetone and DMSO to obtain concentrated stock solutions. […] The concentrated stock solutions obtained were diluted with 20 mL of an aqueous mixture containing acetone, water, isopropyl alcohol, DMSO, Agri-Dex crop oil concentrate, and X-77 surfactant in a 48:39:10:1.5:1.5:0.02 v/v ratio to obtain spray solutions containing the highest application rates. Additional application rates were obtained by serial dilution of 12 mL of the high rate solution into a solution containing 2 mL of 97:3 v/v mixture of acetone and DMSO and 10 mL of an aqueous mixture containing acetone, water, isopropyl alcohol, DMSO, Agri-Dex crop oil concentrate, and X-77 surfactant in a 48:39:10:1.5:1.5:0.02 v/v ratio to obtain ½×, ¼×, ⅛× and 1/16× rates of the high rate. Compound requirements are based upon a 12 mL application volume at a rate of 187 liters per hectare (L/ha). Formulated compounds were applied to the plant material with an overhead Mandel track sprayer equipped with 8002E nozzles calibrated to deliver 187 L/ha over an application area of 0.503 square meters at a spray height of 18 inches (43 cm) above the average plant canopy height. Control plants were sprayed in the same manner with the solvent blank.
(§3) The treated plants and control plants were placed in a greenhouse as described above and watered by subirrigation to prevent wash-off of the test compounds. After 21 dAYS, the condition of the test plants as compared with that of the untreated plants was determined visually and scored on a scale of 0 to 100 percent where 0 corresponds to no injury and 100 corresponds to complete kill and presented as indicated in Table A.
(§4) By applying the well-accepted probit analysis as described by J. Berkson in Journal of the American Statistical Society, 48, 565 (1953) and by D. Finney in “Probit Analysis” Cambridge University Press (1952), herbicidal injury of a specific compound at various rates can be used to calculate GR10, GR20, GR50, GR80 and GR90 values, which are defined as growth reduction factors that correspond to the effective dose of herbicide required to provide plant growth reduction (GR) of 10 percent, 20 percent, 50 percent, 80 percent and 90 percent, respectively. Probit analysis was applied to data collected from multiple dose rates of individual compounds utilizing the procedures explained in the following examples. The analysis of those dose rates is captured in the following tables.

SASKR (Russian thistle) = format: in vivo, Salsola tragus; settings: for Visual Growth Reduction (%) 21 Days After Application, SASKR: SASKR Russian thistle (Salsola iberica), post-emergent
Method: as §1, §2, §3, §4

PAPRH (common poppy) = format: in vivo, Papaver rhoeas; settings: for Visual Growth Reduction (%) 21 Days After Application, PAPRH: PAPRH common poppy (Papaver rhoeas), post-emergent
Method: as §1, §2, §3, §4

[1] = tested on: VERPE (Persian speedwell); format: in vivo, Veronica persica; settings: for Visual Growth Reduction (%) 21 Days After Application, VERPE: VERPE bird's-eye speedwell (Veronica persica), post-emergent
Method: as §1, §2, §3, §4

TRZSS = format: in vivo; settings: crop; for Visual Growth Reduction (%) 21 Days After Application, TRZSS: TRZSS wheat (Triticum aestivum), post-emergent
Procedure, shortened: (§5)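 Greenhouse plants (~14 h photoperiod, 18/17 °C) at second-third true leaf stage were track-sprayed at 187 L/ha with acetone/DMSO-based spray containing Agri-Dex crop oil and X-77. Rates ran from the high rate down to 1/16×. Injury was scored visually after 21 days (0-100%); GR values came from probit analysis.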

HORSS = format: in vivo; settings: crop; for Visual Growth Reduction (%) 21 Days After Application, HORSS: HORSS barley (Hordeum vulgare), post-emergent
Procedure, shortened: as §5

KCHSC (kochia) = format: in vivo, Kochia scoparia
Procedure, shortened: as §5

In the case of Nc1cc(-c2ccc(Cl)c(Cl)c2Cl)nc(C(=O)O)c1Cl [Compound 93], the “Visual Growth Reduction (%) 21 Days After Application, POLCO” value (POLCO (wild buckwheat); 17.5 g ai/ha) is reported as “B (85-94)”, the “Visual Growth Reduction (%) 21 Days After Application, POLCO” value (POLCO (wild buckwheat); 35 g ai/ha) is reported as “B (85-94)” and the “Visual Growth Reduction (%) 21 Days After Application, POLCO” value (POLCO (wild buckwheat); 70 g ai/ha) is reported as “A (95-100)”. For the same compound, the “GR50, POLCO” value (POLCO (wild buckwheat); POLCO, growth reduction of 50%, probit analysis, 21 days) was 2 g ai/ha, the “GR80, POLCO” value (POLCO (wild buckwheat); POLCO, growth reduction of 80%, probit analysis, 21 days) was 7 g ai/ha and the “GR90, POLCO” value (POLCO (wild buckwheat); POLCO, growth reduction of 90%, probit analysis, 21 days) was 13 g ai/ha. The “Visual Growth Reduction (%) 21 Days After Application, SASKR” value (SASKR (Russian thistle); 17.5 g ai/ha) was “B (85-94)”, the “Visual Growth Reduction (%) 21 Days After Application, SASKR” value (SASKR (Russian thistle); 35 g ai/ha) was “B (85-94)” and the “Visual Growth Reduction (%) 21 Days After Application, SASKR” value (SASKR (Russian thistle); 70 g ai/ha) was “B (85-94)”. The “GR50, SASKR” value (SASKR (Russian thistle); SASKR, growth reduction of 50%, probit analysis, 21 days) was 1 g ai/ha, the “GR80, SASKR” value (SASKR (Russian thistle); SASKR, growth reduction of 80%, probit analysis, 21 days) was 10 g ai/ha and the “GR90, SASKR” value (SASKR (Russian thistle); SASKR, growth reduction of 90%, probit analysis, 21 days) was 34 g ai/ha. The “Visual Growth Reduction (%) 21 Days After Application, PAPRH” value (PAPRH (common poppy); 17.5 g ai/ha) was “C (75-84)”, the “Visual Growth Reduction (%) 21 Days After Application, PAPRH” value (PAPRH (common poppy); 35 g ai/ha) was “C (75-84)” and the “Visual Growth Reduction (%) 21 Days After Application, PAPRH” value (PAPRH (common poppy); 70 g ai/ha) was “B (85-94)”. For the same compound, the “GR50, PAPRH” value (PAPRH (common poppy); PAPRH, growth reduction of 50%, probit analysis, 21 days) was 1 g ai/ha, the “GR80, PAPRH” value (PAPRH (common poppy); PAPRH, growth reduction of 80%, probit analysis, 21 days) was 27 g ai/ha and the “GR90, PAPRH” value (PAPRH (common poppy); PAPRH, growth reduction of 90%, probit analysis, 21 days) was >140 g ai/ha. The “Visual Growth Reduction (%) 21 Days After Application, VERPE” value ([1]; 17.5 g ai/ha) was “E (45-59)”, the “Visual Growth Reduction (%) 21 Days After Application, VERPE” value ([1]; 35 g ai/ha) was “D (60-74)” and the “Visual Growth Reduction (%) 21 Days After Application, VERPE” value ([1]; 70 g ai/ha) was “D (60-74)”. The “GR50, VERPE” value ([1]; VERPE, growth reduction of 50%, probit analysis, 21 days) was 24 g ai/ha, the “GR80, VERPE” value ([1]; VERPE, growth reduction of 80%, probit analysis, 21 days) was >140 g ai/ha and the “GR90, VERPE” value ([1]; VERPE, growth reduction of 90%, probit analysis, 21 days) was >140 g ai/ha. For the same compound, the “Visual Growth Reduction (%) 21 Days After Application, TRZSS” value (TRZSS; 17.5 g ai/ha) was “C (75-84)”, the “Visual Growth Reduction (%) 21 Days After Application, TRZSS” value (TRZSS; 35 g ai/ha) was “B (85-94)” and the “Visual Growth Reduction (%) 21 Days After Application, TRZSS” value (TRZSS; 70 g ai/ha) was “B (85-94)”. For the same compound, the “GR10, TRZSS” value (TRZSS; TRZSS wheat, growth reduction of 10%, probit analysis, 21 days) was 1 g ai/ha, the “GR20, TRZSS” value (TRZSS; TRZSS wheat, growth reduction of 20%, probit analysis, 21 days) was 1 g ai/ha and the “Visual Growth Reduction (%) 21 Days After Application, HORSS” value (HORSS; 17.5 g ai/ha) was “C (75-84)”. For the same compound, the “Visual Growth Reduction (%) 21 Days After Application, HORSS” value (HORSS; 35 g ai/ha) was “B (85-94)”, the “Visual Growth Reduction (%) 21 Days After Application, HORSS” value (HORSS; 70 g ai/ha) was “B (85-94)” and the “GR10, HORSS” value (HORSS; HORSS barley, growth reduction of 10%, probit analysis, 21 days) was 1 g ai/ha. The “GR20, HORSS” value (HORSS; HORSS barley, growth reduction of 20%, probit analysis, 21 days) was 1 g ai/ha, the pest or weed control at 17.5 g/ha (KCHSC (kochia); Bassia scoparia, post-emergence, 504 h, KCHSC kochia (Kochia scoparia), 17.5 g ai/ha, post-emergent, read-out: Visual Growth Reduction (%) 21 Days After Application, KCHSC) was 85 to 94% and the pest or weed control at 35 g/ha (KCHSC (kochia); Bassia scoparia, post-emergence, 504 h, KCHSC kochia (Kochia scoparia), 35 g ai/ha, post-emergent, read-out: Visual Growth Reduction (%) 21 Days After Application, KCHSC) was 85 to 94%. The pest or weed control at 70 g/ha (KCHSC (kochia); Bassia scoparia, post-emergence, 504 h, KCHSC kochia (Kochia scoparia), 70 g ai/ha, post-emergent, read-out: Visual Growth Reduction (%) 21 Days After Application, KCHSC) was 95 to 100%, the “GR50, KCHSC” value (KCHSC (kochia); KCHSC, growth reduction of 50%, probit analysis, 21 days) was 2 g ai/ha and the “GR80, KCHSC” value (KCHSC (kochia); KCHSC, growth reduction of 80%, probit analysis, 21 days) was 10 g ai/ha. For the same compound, the “GR90, KCHSC” value (KCHSC (kochia); KCHSC, growth reduction of 90%, probit analysis, 21 days) was 27 g ai/ha.
